Source: patent US20230085307A1, “PYRIDAZINONE COMPOUND AND HERBICIDE” (NISSAN CHEMICAL CORPORATION, priority 2019, published 2023)

How the values were obtained:
[1] = tested on: Italian ryegrass; test: Test Example 4: herbicidal effect by soil treatment (Table 19, symbol K); type: in vivo, Italian ryegrass (Lolium multiflorum); conditions: amount of applied herbicide 320 g/ha
Outline: (§1)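 Emulsion of test compound, water-diluted to predetermined amount, sprayed on soil after sowing (seed depth ~1.5 cm, sterilized diluvial soil). Greenhouse, 25–30° C. Effect graded at three weeks post-spray.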

[2] = tested on: lambsquarters; test: Test Example 5: herbicidal effect by foliage application, plastic box (Table 20, symbol O); type: in vivo, lambsquarters (Chenopodium album); conditions: foliage application, AAH 320 g/ha, evaluated three weeks after application
Outline: (§2)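 Post-emergence foliar test in sterilized diluvial soil. Compound applied as water-diluted emulsion at a predetermined rate to 14-day-old plants; evaluation at three weeks.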

[3] = tested on: redroot pigweed; test: Test Example 5: herbicidal effect by foliage application, plastic box (Table 20, symbol N); type: in vivo, redroot pigweed (Amaranthus retroflexus); conditions: foliage application, AAH 320 g/ha, evaluated three weeks after application
Outline: as §2

[4] = tested on: Italian ryegrass; test: Test Example 5: herbicidal effect by foliage application, plastic box (Table 20, symbol K); type: in vivo, Italian ryegrass (Lolium multiflorum); conditions: foliage application, AAH 320 g/ha, evaluated three weeks after application
Outline: as §2

[5] = tested on: wild oat; test: Test Example 5: herbicidal effect by foliage application, plastic box (Table 20, symbol I); type: in vivo, wild oat (Avena fatua); conditions: foliage application, AAH 320 g/ha, evaluated three weeks after application
Outline: as §2

[6] = tested on: windgrass; test: Test Example 4: herbicidal effect by soil treatment (Table 19, symbol L); type: in vivo, windgrass (Apera spica-venti); conditions: amount of applied herbicide 320 g/ha
Outline: as §1

[7] = tested on: southern crabgrass; test: Test Example 4: herbicidal effect by soil treatment (Table 19, symbol F); type: in vivo, southern crabgrass (Digitaria ciliaris); conditions: amount of applied herbicide 320 g/ha
Outline: as §1

[8] = tested on: lambsquarters; test: Test Example 4: herbicidal effect by soil treatment (Table 19, symbol O); type: in vivo, lambsquarters (Chenopodium album); conditions: amount of applied herbicide 320 g/ha
Outline: as §1

[9] = tested on: Chinese sprangletop; test: Test Example 3: herbicidal effect by foliage application, Wagner pot (Table 18, symbol D); type: in vivo, chinese sprangletop (Leptochloa chinensis); conditions: amount of applied herbicide 320 g/ha
Outline: (§3)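 Plants were sown in alluvial soil held under 0.1–0.5 cm standing water and grown 14 days in a greenhouse at 25–30 °C. An emulsifiable formulation, water-diluted to the set dose, was then sprayed onto the foliage, and effects were scored three weeks later using previously defined criteria.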

[10] = tested on: late watergrass; test: Test Example 2: herbicidal activity, application during weed generation under submerged conditions (Table 17, symbol A); type: in vivo, late watergrass (Echinochloa oryzicola); conditions: AAH 320 g/ha; application during weed generation, submerged conditions
Outline: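 Herbicide emulsion, diluted with water to the chosen amount, is applied onto 4 cm floodwater over alluvial soil where the weeds were co-sown and raised at 25–30° C. Application timing: 1–2 leaves. Assessment: three weeks afterwards.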

[11] = tested on: rice flat sedge; test: Test Example 3: herbicidal effect by foliage application, Wagner pot (Table 18, symbol E); type: in vivo, rice flat sedge (Cyperus iria); conditions: amount of applied herbicide 320 g/ha
Outline: as §3

[12] = tested on: chickweed; test: Test Example 4: herbicidal effect by soil treatment (Table 19, symbol P); type: in vivo, common chickweed (Stellaria media); conditions: amount of applied herbicide 320 g/ha
Outline: as §1

[13] = tested on: wild oat; test: Test Example 4: herbicidal effect by soil treatment (Table 19, symbol I); type: in vivo, wild oat (Avena fatua); conditions: amount of applied herbicide 320 g/ha
Outline: as §1

[14] = tested on: chickweed; test: Test Example 5: herbicidal effect by foliage application, plastic box (Table 20, symbol P); type: in vivo, common chickweed (Stellaria media); conditions: foliage application, AAH 320 g/ha, evaluated three weeks after application
Outline: as §2

[15] = tested on: barnyard grass; test: Test Example 5: herbicidal effect by foliage application, plastic box (Table 20, symbol H); type: in vivo, barnyard grass (Echinochloa crus-galli); conditions: foliage application, AAH 320 g/ha, evaluated three weeks after application
Outline: as §2

[16] = tested on: late watergrass; test: Test Example 1: herbicidal activity, application before weed generation under submerged conditions (Table 16, symbol A); type: in vivo, late watergrass (Echinochloa oryzicola); conditions: 320 g/ha applied herbicide
Outline: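 Alluvial soil was flooded to 4 cm depth, weed seeds were sown mixed and 2.5-leaf rice seedlings were transplanted. On sowing day, the compound's emulsion, diluted in water to a set dose, was applied to the water surface. Plants grew at 25–30 °C and were scored 0–5 after three weeks.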

SMILES | herbicidal effect on K: Italian ryegrass [1] | O: lambsquarters, herbicidal effect (criteria 0-5) [2] | N: redroot pigweed, herbicidal effect (criteria 0-5) [3] | K: Italian ryegrass, herbicidal effect (criteria 0-5) [4] | I: wild oat, herbicidal effect (criteria 0-5) [5] | herbicidal effect on L: windgrass [6] | herbicidal effect on F: southern crabgrass [7] | herbicidal effect on O: lambsquarters [8] | herbicidal effect on D: Chinese sprangletop [9] | herbicidal effect rating, A: late watergrass [10] | herbicidal effect on E: rice flat sedge [11] | herbicidal effect on P: chickweed [12] | herbicidal effect on I: wild oat [13] | P: chickweed, herbicidal effect (criteria 0-5) [14] | H: barnyard grass, herbicidal effect (criteria 0-5) [15] | Herbicidal effect on A: late watergrass (grade 0-5) [16]
CCCC(=O)Oc1c(C)nn(C)c(=O)c1-c1c(-c2ccc(SC(C)C)cc2)sc2ccc(F)cc12 [2-253] | 0 (Herbicidal rate of 5% or less (almost no effect)) | 4 (Herbicidal rate of 70% or more and less than 90%) | 5 (Herbicidal rate of 90% or more (almost completely withered)) | 3 (Herbicidal rate of 40% or more and less than 70%) | 2 (Herbicidal rate of 20% or more and less than 40%) | 0 (Herbicidal rate of 5% or less (almost no effect)) | 0 (Herbicidal rate of 5% or less (almost no effect)) | 4 (Herbicidal rate of 70% or more and less than 90%) | 3 (Herbicidal rate of 40% or more and less than 70%) | 3 (Herbicidal rate of 40% or more and less than 70%) | 4 (Herbicidal rate of 70% or more and less than 90%) | 3 (Herbicidal rate of 40% or more and less than 70%) | 0 (Herbicidal rate of 5% or less (almost no effect)) | 5 (Herbicidal rate of 90% or more (almost completely withered)) | 5 (Herbicidal rate of 90% or more (almost completely withered)) | 5 (Herbicidal rate of 90% or more (almost completely withered))
CCCC(=O)Oc1c(C)nn(C)c(=O)c1-c1c(-c2ccc(SC3CC3)cc2)sc2ccc(F)cc12 [2-255] | 3 (Herbicidal rate of 40% or more and less than 70%) | 4 (Herbicidal rate of 70% or more and less than 90%) | 5 (Herbicidal rate of 90% or more (almost completely withered)) | 5 (Herbicidal rate of 90% or more (almost completely withered)) | 5 (Herbicidal rate of 90% or more (almost completely withered)) | 3 (Herbicidal rate of 40% or more and less than 70%) | 0 (Herbicidal rate of 5% or less (almost no effect)) | 3 (Herbicidal rate of 40% or more and less than 70%) | 4 (Herbicidal rate of 70% or more and less than 90%) | 4 (Herbicidal rate of 70% or more and less than 90%) | 5 (Herbicidal rate of 90% or more (almost completely withered)) | 4 (Herbicidal rate of 70% or more and less than 90%) | 0 (Herbicidal rate of 5% or less (almost no effect)) | 5 (Herbicidal rate of 90% or more (almost completely withered)) | 5 (Herbicidal rate of 90% or more (almost completely withered)) | 5 (Herbicidal rate of 90% or more (almost completely withered))
Cc1nn(C)c(=O)c(-c2c(-c3ccc(OC(F)F)cc3)sc3ccc(F)cc23)c1OC(=O)C1CCCC1 [2-280] | 5 (Herbicidal rate of 90% or more (almost completely withered)) | 5 (Herbicidal rate of 90% or more (almost completely withered)) | 5 (Herbicidal rate of 90% or more (almost completely withered)) | 5 (Herbicidal rate of 90% or more (almost completely withered)) | 3 (Herbicidal rate of 40% or more and less than 70%) | 0 (Herbicidal rate of 5% or less (almost no effect)) | 0 (Herbicidal rate of 5% or less (almost no effect)) | 5 (Herbicidal rate of 90% or more (almost completely withered)) | 3 (Herbicidal rate of 40% or more and less than 70%) | 4 (Herbicidal rate of 70% or more and less than 90%) | 4 (Herbicidal rate of 70% or more and less than 90%) | 1 (Herbicidal rate of 5% or more and less than 20%) | 0 (Herbicidal rate of 5% or less (almost no effect)) | 5 (Herbicidal rate of 90% or more (almost completely withered)) | 5 (Herbicidal rate of 90% or more (almost completely withered)) | 5 (Herbicidal rate of 90% or more (almost completely withered))
C=C(C)C(=O)Oc1c(C)nn(C)c(=O)c1-c1c(-c2ccc(OC(F)F)cc2)sc2ccc(F)cc12 [2-281] | 5 (Herbicidal rate of 90% or more (almost completely withered)) | 5 (Herbicidal rate of 90% or more (almost completely withered)) | 5 (Herbicidal rate of 90% or more (almost completely withered)) | 5 (Herbicidal rate of 90% or more (almost completely withered)) | 4 (Herbicidal rate of 70% or more and less than 90%) | 3 (Herbicidal rate of 40% or more and less than 70%) | 3 (Herbicidal rate of 40% or more and less than 70%) | 5 (Herbicidal rate of 90% or more (almost completely withered)) | 3 (Herbicidal rate of 40% or more and less than 70%) | 5 (Herbicidal rate of 90% or more (almost completely withered)) | 5 (Herbicidal rate of 90% or more (almost completely withered)) | 4 (Herbicidal rate of 70% or more and less than 90%) | 0 (Herbicidal rate of 5% or less (almost no effect)) | 5 (Herbicidal rate of 90% or more (almost completely withered)) | 5 (Herbicidal rate of 90% or more (almost completely withered)) | 5 (Herbicidal rate of 90% or more (almost completely withered))
Cc1nn(C)c(=O)c(-c2c(-c3ccc(OC(F)F)cc3)sc3ccc(F)cc23)c1OC(=O)COc1ccccc1 [2-284] | 5 (Herbicidal rate of 90% or more (almost completely withered)) | 5 (Herbicidal rate of 90% or more (almost completely withered)) | 5 (Herbicidal rate of 90% or more (almost completely withered)) | 5 (Herbicidal rate of 90% or more (almost completely withered)) | 4 (Herbicidal rate of 70% or more and less than 90%) | 4 (Herbicidal rate of 70% or more and less than 90%) | 4 (Herbicidal rate of 70% or more and less than 90%) | 5 (Herbicidal rate of 90% or more (almost completely withered)) | 3 (Herbicidal rate of 40% or more and less than 70%) | 3 (Herbicidal rate of 40% or more and less than 70%) | 5 (Herbicidal rate of 90% or more (almost completely withered)) | 4 (Herbicidal rate of 70% or more and less than 90%) | 3 (Herbicidal rate of 40% or more and less than 70%) | 5 (Herbicidal rate of 90% or more (almost completely withered)) | 5 (Herbicidal rate of 90% or more (almost completely withered)) | 3 (Herbicidal rate of 40% or more and less than 70%)
